The target in the experiment is HIV-RT (HIV reverse transcriptase). In words: Inhibitory activity against HIV-RT.

These results are taken from BindingDB's records for doi:10.1021/jm950922q (University of North Carolina at Chapel Hill, 1996).

A value given as a limit tells only on which side of the number the result lay.

Turning to `CC(C)[C@@H]1CC[C@]2(C(=O)O)CC[C@]3(C)[C@H](CC[C@@H]4[C@@]5(C)CC[C@H](OC(=O)COCC(=O)O)C(C)(C)[C@@H]5CC[C@]43C)[C@@H]12` [(1S,3aS,5aR,5bR,7aR,9S,11aR,11bR,13aR,13bR)-9-(2-Carboxymethoxy-acetoxy)-1-isopropyl-5a,5b,8,8,11a-pentamethyl-icosahydro-cyclopenta[a]chrysene-3a-carboxylic acid], the IC50 is > 174 µM.
The result for `C=C(C)[C@@H]1CC[C@]2(C(=O)O)CC[C@]3(C)[C@H](CC[C@@H]4[C@@]5(C)CC[C@H](OC(=O)C(C)(C)CC(=O)O)C(C)(C)[C@@H]5CC[C@]43C)[C@@H]12` [(1R,3aS,5aR,5bR,7aR,9S,11aR,11bR,13aR,13bR)-9-(3-carboxy-2,2-dimethylpropanoyloxy)-5a,5b,8,8,11a-pentamethyl-1-(prop-1-en-2-yl)icosahydro-1H-cyclopenta[a]chrysene-3a-carboxylic acid] reads > 171 µM.
On to `C=C(C)[C@@H]1CC[C@]2(C(=O)O)CC[C@]3(C)[C@H](CC[C@@H]4[C@@]5(C)CC[C@H](OC(=O)CC(C)(C)CC(=O)O)C(C)(C)[C@@H]5CC[C@]43C)[C@@H]12` [3,3-Dimethyl-pentanedioic acid mono-((1R,3aS,5aR,5bR,7aR,9S,11aR,11bR,13aR,13bR)-3a-carboxy-1-isopropenyl-5a,5b,8,8,11a-pentamethyl-icosahydro-cyclopenta[a]chrysen-9-yl) ester], for which the IC50 is > 167 µM.
For `CC(C)[C@@H]1CC[C@]2(C(=O)O)CC[C@]3(C)[C@H](CC[C@@H]4[C@@]5(C)CC[C@H](O)C(C)(C)[C@@H]5CC[C@]43C)[C@@H]12` [Dihydrobetulinic acid] the value was > 218 µM; for `C=C(C)[C@@H]1CC[C@]2(C(=O)O)CC[C@]3(C)[C@H](CC[C@@H]4[C@@]5(C)CC[C@H](OC(=O)COCC(=O)O)C(C)(C)[C@@H]5CC[C@]43C)[C@@H]12` [(1R,3aS,5aR,5bR,7aR,9S,11aR,11bR,13aR,13bR)-9-(2-Carboxymethoxy-acetoxy)-1-isopropenyl-5a,5b,8,8,11a-pentamethyl-icosahydro-cyclopenta[a]chrysene-3a-carboxylic acid], > 175 µM.
The result for `CC(C)[C@@H]1CC[C@]2(C(=O)O)CC[C@]3(C)[C@H](CC[C@@H]4[C@@]5(C)CC[C@H](OC(=O)CC(C)(C)CC(=O)O)C(C)(C)[C@@H]5CC[C@]43C)[C@@H]12` [3,3-Dimethyl-pentanedioic acid mono-((1S,3aS,5aR,5bR,7aR,9S,11aR,11bR,13aR,13bR)-3a-carboxy-1-isopropyl-5a,5b,8,8,11a-pentamethyl-icosahydro-cyclopenta[a]chrysen-9-yl) ester] reads > 167 µM; that for `CC(C)[C@@H]1CC[C@]2(C(=O)O)CC[C@]3(C)[C@H](CC[C@@H]4[C@@]5(C)CC[C@H](OC(=O)CC(C)(C)C(=O)O)C(C)(C)[C@@H]5CC[C@]43C)[C@@H]12` [2,2-Dimethyl-succinic acid 4-((1S,3aS,5aR,5bR,7aR,9S,11aR,11bR,13aR,13bR)-3a-carboxy-1-isopropyl-5a,5b,8,8,11a-pentamethyl-icosahydro-cyclopenta[a]chrysen-9-yl) ester], > 171 µM; that for `C=C(C)[C@@H]1CC[C@]2(C(=O)O)CC[C@]3(C)[C@H](CC[C@@H]4[C@@]5(C)CC[C@H](O)C(C)(C)[C@@H]5CC[C@]43C)[C@@H]12`, > 219 µM.

One may read the IC50 as the point on the concentration scale where inhibition reaches its midpoint.
